Assay results taken from publication PMC8550792, “Evolution of kinase polypharmacology across HSP90 drug discovery” (Cell Chemical Biology, 2021).

Key:
Assay in all cases: biochemical
Type in all cases: biochemical
382 unique human kinases [1] = target: T1, 382 unique human kinases (Homo sapiens, UniProt O43353); conditions: RIPK2, 10 uM; for remaining activity at 10 µM: read-out: % Enzyme Activity (relative to DMSO controls)
T1 construct: purchased Reaction Biology (HotSpot contract assay)

382 unique human kinases [2] = target: T2, 382 unique human kinases (Homo sapiens, UniProt Q15139); conditions: PKCmu/PRKD1, 10 uM; for remaining activity at 10 µM: read-out: % Enzyme Activity (relative to DMSO controls)
T2 construct: purchased Reaction Biology (HotSpot contract assay)
T2 sequence (Q15139 1-912): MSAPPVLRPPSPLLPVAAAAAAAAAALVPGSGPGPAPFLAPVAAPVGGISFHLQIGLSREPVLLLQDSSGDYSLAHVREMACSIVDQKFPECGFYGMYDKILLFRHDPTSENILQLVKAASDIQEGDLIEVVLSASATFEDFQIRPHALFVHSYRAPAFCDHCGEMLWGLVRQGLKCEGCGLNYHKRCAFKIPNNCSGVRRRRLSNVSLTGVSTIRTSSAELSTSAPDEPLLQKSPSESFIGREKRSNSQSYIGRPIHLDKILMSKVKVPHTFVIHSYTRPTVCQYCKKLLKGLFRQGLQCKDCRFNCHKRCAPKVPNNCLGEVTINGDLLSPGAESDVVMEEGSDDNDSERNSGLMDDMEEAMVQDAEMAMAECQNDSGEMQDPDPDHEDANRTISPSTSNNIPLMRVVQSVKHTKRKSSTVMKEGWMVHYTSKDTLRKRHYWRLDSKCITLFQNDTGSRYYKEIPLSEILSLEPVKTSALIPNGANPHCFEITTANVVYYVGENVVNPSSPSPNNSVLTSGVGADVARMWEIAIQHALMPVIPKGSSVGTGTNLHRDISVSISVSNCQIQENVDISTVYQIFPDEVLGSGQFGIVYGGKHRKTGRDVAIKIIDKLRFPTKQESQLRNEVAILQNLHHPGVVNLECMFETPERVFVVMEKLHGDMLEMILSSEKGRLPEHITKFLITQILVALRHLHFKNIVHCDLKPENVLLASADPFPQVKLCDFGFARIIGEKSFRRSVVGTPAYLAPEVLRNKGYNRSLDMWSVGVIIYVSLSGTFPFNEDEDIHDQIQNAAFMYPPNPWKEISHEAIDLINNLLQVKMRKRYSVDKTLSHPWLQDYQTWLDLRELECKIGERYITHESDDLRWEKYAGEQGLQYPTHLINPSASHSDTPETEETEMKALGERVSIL

382 unique human kinases [3] = target: T3, 382 unique human kinases (Homo sapiens, UniProt O75116); conditions: ROCK2, 10 uM; for remaining activity at 10 µM: read-out: % Enzyme Activity (relative to DMSO controls)
T3 construct: purchased Reaction Biology (HotSpot contract assay)
T3 sequence (O75116 whole entry): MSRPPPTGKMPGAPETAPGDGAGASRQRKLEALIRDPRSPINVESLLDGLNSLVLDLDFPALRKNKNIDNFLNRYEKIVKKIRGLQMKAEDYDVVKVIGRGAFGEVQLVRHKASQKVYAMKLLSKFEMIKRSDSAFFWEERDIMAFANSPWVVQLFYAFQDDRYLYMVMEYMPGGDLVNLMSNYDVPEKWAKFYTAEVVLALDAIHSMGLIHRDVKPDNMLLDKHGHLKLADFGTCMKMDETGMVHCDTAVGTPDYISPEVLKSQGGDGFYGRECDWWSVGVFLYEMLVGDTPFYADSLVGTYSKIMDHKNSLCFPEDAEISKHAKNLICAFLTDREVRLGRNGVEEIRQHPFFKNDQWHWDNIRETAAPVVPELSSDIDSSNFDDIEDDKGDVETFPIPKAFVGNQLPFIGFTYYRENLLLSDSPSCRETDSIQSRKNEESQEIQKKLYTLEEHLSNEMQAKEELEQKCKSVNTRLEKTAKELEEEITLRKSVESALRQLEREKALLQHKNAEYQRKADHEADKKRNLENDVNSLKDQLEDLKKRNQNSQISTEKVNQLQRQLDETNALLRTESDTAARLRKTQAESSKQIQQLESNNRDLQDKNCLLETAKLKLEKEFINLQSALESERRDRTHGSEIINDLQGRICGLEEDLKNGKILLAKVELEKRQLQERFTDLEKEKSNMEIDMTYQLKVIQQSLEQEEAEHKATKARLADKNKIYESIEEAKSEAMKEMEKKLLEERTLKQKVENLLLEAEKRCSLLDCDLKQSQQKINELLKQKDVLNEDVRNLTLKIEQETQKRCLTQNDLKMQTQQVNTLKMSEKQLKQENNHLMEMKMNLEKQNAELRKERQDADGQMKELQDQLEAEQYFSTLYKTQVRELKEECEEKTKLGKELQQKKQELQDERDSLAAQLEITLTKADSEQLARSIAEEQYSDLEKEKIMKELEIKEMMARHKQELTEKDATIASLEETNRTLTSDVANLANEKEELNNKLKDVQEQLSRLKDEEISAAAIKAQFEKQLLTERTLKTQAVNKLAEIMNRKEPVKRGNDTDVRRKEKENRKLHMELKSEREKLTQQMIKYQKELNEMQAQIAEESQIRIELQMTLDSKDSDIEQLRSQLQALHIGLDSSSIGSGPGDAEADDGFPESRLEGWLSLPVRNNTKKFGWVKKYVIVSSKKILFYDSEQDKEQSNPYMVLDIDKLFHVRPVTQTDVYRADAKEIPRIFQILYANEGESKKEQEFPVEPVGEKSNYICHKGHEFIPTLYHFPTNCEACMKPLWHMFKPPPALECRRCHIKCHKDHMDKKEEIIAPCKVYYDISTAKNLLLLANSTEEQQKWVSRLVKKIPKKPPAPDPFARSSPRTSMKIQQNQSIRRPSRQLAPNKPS

382 unique human kinases [4] = target: T4, 382 unique human kinases (Homo sapiens, UniProt Q9UL54); conditions: TAOK2/TAO1, [ATP] 30 µM, compound 10 uM; for remaining activity at 10 µM: read-out: % Enzyme Activity (relative to DMSO controls)
T4 construct: purchased Reaction Biology (HotSpot contract assay)
T4 sequence (Q9UL54 1-1235): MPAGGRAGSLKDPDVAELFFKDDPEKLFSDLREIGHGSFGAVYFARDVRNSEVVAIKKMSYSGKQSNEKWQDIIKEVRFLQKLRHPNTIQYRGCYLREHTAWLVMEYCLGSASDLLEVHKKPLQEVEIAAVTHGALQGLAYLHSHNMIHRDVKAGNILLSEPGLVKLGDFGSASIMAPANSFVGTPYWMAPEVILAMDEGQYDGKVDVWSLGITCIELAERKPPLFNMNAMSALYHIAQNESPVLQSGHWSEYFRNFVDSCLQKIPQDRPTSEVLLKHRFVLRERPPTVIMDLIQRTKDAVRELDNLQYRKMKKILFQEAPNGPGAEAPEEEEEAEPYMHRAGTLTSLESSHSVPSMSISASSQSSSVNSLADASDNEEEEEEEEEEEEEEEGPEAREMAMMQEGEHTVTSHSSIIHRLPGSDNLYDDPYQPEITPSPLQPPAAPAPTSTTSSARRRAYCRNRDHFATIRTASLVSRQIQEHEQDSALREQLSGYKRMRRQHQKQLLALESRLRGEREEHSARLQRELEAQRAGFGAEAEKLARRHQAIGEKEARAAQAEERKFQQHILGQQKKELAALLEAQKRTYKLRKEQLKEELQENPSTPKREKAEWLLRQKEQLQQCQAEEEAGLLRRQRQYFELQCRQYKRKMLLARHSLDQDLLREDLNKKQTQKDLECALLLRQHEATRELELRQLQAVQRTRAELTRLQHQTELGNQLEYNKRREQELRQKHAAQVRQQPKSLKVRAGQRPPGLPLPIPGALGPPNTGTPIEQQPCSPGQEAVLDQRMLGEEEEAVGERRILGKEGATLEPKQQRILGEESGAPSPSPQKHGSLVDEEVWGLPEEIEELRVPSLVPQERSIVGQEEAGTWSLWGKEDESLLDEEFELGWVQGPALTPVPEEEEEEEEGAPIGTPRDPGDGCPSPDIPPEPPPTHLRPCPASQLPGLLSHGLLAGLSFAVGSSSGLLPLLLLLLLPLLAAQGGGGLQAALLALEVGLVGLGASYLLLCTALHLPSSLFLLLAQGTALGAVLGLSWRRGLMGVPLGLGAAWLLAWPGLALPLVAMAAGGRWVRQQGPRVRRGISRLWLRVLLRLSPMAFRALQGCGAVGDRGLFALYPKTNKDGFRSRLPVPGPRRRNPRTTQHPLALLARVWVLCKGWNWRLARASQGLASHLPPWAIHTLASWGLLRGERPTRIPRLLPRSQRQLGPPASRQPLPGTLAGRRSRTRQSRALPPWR

T1 sequence (O43353 whole entry): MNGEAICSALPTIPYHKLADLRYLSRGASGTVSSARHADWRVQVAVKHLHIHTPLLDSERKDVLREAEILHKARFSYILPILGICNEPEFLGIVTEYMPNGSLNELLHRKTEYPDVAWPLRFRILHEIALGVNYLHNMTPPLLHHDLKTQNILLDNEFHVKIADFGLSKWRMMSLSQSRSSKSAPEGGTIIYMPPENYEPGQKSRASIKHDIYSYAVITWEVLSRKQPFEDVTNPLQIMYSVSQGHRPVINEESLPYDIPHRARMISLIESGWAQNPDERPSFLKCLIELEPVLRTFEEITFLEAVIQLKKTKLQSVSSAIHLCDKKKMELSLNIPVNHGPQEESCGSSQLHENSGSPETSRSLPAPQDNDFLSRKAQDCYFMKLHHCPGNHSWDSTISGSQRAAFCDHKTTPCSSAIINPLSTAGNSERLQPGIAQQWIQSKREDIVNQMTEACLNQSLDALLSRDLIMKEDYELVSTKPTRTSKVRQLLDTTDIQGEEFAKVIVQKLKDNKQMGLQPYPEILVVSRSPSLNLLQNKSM

| SMILES | remaining activity at 10 µM (382 unique human kinases [1]) [%] | remaining activity at 10 µM (382 unique human kinases [2]) [%] | remaining activity at 10 µM (382 unique human kinases [3]) [%] | remaining activity at 10 µM (382 unique human kinases [4]) [%] | % Enzyme Activity (relative to DMSO controls) (382 unique human kinases [1]) [%] | % Enzyme Activity (relative to DMSO controls) (382 unique human kinases [2]) [%] | % Enzyme Activity (relative to DMSO controls) (382 unique human kinases [3]) [%] | % Enzyme Activity (relative to DMSO controls) (382 unique human kinases [4]) [%] |
| --- | --- | --- | --- | --- | --- | --- | --- | --- |
| CC(C)c1cc(-c2n[nH]c(=O)n2-c2ccc3c(ccn3C)c2)c(O)cc1O [Ganetespib (STA9090)] | 71.3 | 84 |  |  |  |  |  |  |
| CC(C)c1cc(-c2n[nH]c(=O)n2-c2ccc3c(ccn3C)c2)c(O)cc1O [Ganetespib] |  |  | 105 | 58.9 |  |  |  |  |
| CCNC(=O)c1noc(-c2cc(C(C)C)c(O)cc2O)c1-c1ccc(CN2CCOCC2)cc1 [Luminespib (AUY-922)] | 112 | 86.5 |  |  | 109.60 | 86.44 |  |  |
| CCNC(=O)c1noc(-c2cc(C(C)C)c(O)cc2O)c1-c1ccc(CN2CCOCC2)cc1 [Luminespib] |  |  | 99.3 | 96 |  |  | 98.18 | 95.89 |
